Reference: US10670605B2, “Cysteine reactive probes and uses thereof” (The Scripps Research Institute, priority 2015, dated 2020)
Blank lines part the entries; values can stand above or below the compound they belong to.

Assays:
Assay in all cases: Competitive isoTOP-ABPP in situ (fragment-treated cells)
Type in all cases: cell-based
[1] = biological target: T1, cysteines in MDA-MB-231 and Ramos cells (Homo sapiens, UniProt Q96HE7)
T1 sequence (Q96HE7 24-468): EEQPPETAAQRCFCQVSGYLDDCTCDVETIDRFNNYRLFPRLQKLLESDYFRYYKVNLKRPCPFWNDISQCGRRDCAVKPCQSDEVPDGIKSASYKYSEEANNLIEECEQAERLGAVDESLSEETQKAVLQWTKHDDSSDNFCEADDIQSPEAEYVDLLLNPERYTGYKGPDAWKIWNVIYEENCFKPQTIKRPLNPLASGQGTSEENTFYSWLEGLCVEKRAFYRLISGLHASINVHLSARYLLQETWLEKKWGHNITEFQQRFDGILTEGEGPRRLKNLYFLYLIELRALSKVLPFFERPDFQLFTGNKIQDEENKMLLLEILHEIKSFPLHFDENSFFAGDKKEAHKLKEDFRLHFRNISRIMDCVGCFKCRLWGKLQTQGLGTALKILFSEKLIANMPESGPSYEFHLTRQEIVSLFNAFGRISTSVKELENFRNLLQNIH

[2] = biological target: cysteines in MDA-MB-231 and Ramos cells (Homo sapiens, UniProt P38606)
cysteines in MDA-MB-231 and Ramos cells (Homo sapiens, UniProt P38606), sequence (P38606 whole entry): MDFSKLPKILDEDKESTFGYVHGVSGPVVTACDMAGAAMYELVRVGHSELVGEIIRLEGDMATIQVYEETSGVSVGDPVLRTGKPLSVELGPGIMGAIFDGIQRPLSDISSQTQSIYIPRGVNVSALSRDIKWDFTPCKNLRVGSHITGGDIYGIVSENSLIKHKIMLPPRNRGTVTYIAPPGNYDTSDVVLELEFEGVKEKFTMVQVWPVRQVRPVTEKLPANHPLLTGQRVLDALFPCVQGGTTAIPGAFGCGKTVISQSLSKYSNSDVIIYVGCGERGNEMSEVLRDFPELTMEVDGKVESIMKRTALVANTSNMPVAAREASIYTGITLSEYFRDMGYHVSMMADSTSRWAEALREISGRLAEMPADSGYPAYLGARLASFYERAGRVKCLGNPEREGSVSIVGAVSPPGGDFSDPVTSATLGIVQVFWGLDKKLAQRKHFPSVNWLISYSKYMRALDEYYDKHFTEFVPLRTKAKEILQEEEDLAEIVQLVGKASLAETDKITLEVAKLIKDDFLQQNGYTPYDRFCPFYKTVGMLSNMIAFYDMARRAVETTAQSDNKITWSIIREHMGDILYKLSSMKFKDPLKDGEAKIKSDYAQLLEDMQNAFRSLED

[3] = biological target: T2, cysteines in MDA-MB-231 and Ramos cells (Homo sapiens, UniProt P21980)
T2 sequence (P21980 1-687): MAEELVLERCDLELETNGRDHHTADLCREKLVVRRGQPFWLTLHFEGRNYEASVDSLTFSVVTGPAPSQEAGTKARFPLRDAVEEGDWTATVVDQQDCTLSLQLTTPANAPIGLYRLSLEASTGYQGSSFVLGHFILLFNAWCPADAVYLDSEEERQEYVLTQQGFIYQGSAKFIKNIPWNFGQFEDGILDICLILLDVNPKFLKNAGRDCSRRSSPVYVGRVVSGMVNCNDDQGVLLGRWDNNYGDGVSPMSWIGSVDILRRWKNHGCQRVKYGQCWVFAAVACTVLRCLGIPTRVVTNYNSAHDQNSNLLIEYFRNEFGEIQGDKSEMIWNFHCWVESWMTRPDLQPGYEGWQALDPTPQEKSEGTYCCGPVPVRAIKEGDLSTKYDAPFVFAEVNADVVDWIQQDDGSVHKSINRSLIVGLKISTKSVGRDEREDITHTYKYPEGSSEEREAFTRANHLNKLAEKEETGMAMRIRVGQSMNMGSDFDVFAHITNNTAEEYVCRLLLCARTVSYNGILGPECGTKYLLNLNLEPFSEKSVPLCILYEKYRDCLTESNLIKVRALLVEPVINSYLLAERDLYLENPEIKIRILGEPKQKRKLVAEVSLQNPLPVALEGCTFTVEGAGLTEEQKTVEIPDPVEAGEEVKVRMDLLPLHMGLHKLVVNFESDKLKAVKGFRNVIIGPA

[4] = biological target: cysteines in MDA-MB-231 and Ramos cells (Homo sapiens, UniProt O60610); conditions: for isoTOP-ABPP ratio O60610_C1227: 200 μM, insitu
cysteines in MDA-MB-231 and Ramos cells (Homo sapiens, UniProt O60610), sequence (O60610 whole entry): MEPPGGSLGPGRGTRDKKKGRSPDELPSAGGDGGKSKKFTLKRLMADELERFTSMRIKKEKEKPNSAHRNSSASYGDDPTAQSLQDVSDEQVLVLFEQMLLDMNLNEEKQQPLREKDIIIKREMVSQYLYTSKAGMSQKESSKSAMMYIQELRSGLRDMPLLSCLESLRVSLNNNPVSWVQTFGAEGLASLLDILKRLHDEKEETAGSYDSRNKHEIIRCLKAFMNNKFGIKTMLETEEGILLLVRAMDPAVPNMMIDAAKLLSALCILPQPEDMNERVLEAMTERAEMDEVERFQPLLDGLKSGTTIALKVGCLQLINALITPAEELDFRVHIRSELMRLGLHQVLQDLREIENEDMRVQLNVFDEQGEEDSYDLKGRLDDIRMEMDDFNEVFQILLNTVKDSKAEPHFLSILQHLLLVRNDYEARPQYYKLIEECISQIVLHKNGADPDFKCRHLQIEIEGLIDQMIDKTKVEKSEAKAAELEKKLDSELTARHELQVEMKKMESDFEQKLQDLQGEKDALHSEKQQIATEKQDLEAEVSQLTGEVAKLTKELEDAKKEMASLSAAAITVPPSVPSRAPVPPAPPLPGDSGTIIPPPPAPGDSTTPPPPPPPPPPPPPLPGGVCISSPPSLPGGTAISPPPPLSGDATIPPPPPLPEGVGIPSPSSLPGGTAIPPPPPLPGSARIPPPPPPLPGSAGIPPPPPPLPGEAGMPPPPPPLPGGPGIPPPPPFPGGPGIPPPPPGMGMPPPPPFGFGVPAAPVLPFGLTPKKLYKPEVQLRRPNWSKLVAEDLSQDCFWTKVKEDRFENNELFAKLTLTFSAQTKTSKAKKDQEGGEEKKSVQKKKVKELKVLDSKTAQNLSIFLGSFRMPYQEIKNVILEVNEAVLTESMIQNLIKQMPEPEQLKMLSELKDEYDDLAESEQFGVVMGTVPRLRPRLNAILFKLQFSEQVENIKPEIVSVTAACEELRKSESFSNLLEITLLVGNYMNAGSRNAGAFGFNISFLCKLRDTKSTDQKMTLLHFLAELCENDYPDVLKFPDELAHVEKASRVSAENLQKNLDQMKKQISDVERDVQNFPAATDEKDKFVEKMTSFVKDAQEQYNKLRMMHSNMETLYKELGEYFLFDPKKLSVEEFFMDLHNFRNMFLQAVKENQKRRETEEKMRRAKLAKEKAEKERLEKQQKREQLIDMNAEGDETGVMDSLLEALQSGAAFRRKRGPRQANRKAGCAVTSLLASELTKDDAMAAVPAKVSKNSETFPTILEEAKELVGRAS

[5] = biological target: T3, cysteines in MDA-MB-231 and Ramos cells (Homo sapiens, UniProt Q9NRG0)
T3 sequence (Q9NRG0 1-131): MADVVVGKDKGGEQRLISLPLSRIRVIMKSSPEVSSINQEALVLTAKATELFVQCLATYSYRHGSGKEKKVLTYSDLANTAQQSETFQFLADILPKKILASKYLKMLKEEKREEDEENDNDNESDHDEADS

[6] = biological target: cysteines in MDA-MB-231 and Ramos cells (Homo sapiens, UniProt P83731); conditions: for isoTOP-ABPP ratio P83731_C6: 200 μM, insitu
[7] = biological target: T4, cysteines in MDA-MB-231 and Ramos cells (Homo sapiens, UniProt Q99497)
T4 sequence (Q99497 1-189): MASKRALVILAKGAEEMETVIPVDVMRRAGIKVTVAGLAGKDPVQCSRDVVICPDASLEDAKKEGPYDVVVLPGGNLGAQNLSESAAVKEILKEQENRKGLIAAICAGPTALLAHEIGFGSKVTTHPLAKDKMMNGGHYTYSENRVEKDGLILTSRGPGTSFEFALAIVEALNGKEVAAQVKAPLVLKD

[8] = biological target: T5, cysteines in MDA-MB-231 and Ramos cells (Homo sapiens, UniProt A6NDU8)
T5 sequence (A6NDU8 1-294): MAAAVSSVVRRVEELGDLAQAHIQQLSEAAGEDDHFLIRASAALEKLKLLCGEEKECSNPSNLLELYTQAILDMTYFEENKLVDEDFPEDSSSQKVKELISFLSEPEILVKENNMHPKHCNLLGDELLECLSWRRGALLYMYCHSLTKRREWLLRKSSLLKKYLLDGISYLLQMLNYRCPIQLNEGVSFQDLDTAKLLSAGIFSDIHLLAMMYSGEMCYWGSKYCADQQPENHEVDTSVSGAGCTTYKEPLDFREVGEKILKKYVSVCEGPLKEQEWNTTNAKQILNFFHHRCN

[9] = biological target: T6, cysteines in MDA-MB-231 and Ramos cells (Homo sapiens, UniProt O14879)
T6 sequence (O14879 1-490): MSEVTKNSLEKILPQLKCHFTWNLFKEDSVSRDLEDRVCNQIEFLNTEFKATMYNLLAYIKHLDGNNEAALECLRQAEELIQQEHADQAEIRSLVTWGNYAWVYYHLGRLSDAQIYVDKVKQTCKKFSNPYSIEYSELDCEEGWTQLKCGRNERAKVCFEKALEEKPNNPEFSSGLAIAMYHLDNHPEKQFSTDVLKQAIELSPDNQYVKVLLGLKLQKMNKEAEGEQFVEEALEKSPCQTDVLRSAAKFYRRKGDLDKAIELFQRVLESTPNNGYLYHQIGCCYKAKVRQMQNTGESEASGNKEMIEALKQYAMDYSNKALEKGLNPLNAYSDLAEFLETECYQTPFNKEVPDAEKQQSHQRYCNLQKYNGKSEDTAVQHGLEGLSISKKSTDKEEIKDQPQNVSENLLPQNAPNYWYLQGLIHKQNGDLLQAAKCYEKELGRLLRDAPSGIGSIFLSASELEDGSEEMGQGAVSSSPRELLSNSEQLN

- isoTOP-ABPP ratio Q96HE7_C241 ([1]; 200 μM, insitu, 231): 1.5
- isoTOP-ABPP ratio Q96HE7_C241 ([1]; 200 μM, insitu, ramos): 1.3
- isoTOP-ABPP ratio, cysteine Q96HE7_C37 ([1]; 200 μM, insitu, ramos): 1.4
- isoTOP-ABPP ratio P38606_C138 ([2]; 200 μM, insitu, 231): 20.0
- isoTOP-ABPP ratio P21980_C277 ([3]; 200 μM, insitu, 231): 0.8
- isoTOP-ABPP ratio O60610_C1227 [4]; 231: 0.7
- isoTOP-ABPP ratio O60610_C1227 ([4]; ramos): 0.9
- isoTOP-ABPP ratio Q9NRG0_C55 ([5]; 200 μM, insitu, 231): 1.2
- isoTOP-ABPP ratio P83731_C6 [6]; 231: 0.7
- isoTOP-ABPP ratio P83731_C6 ([6]; ramos): 1.0
- isoTOP-ABPP ratio Q99497_C106 ([7]; 200 μM, insitu, ramos): 3.3
- isoTOP-ABPP ratio A6NDU8_C179 ([8]; 200 μM, insitu, 231): 0.8
- isoTOP-ABPP ratio O14879_C343 ([9]; 200 μM, insitu, 231): 1.0
Structure (SMILES): O=C(CCl)NCCc1c[nH]c2ccccc12 [compound 13]

- isoTOP-ABPP reactivity Q96HE7_C37 ERO1L ([1]; 100 μM in situ 231): 5.4
- isoTOP-ABPP reactivity Q96HE7_C241 ERO1L ([1]; 100 μM in situ 231): 3.0
- isoTOP-ABPP reactivity P38606_C138 ATP6V1A ([2]; 100 μM in situ 231): 20.0
- isoTOP-ABPP reactivity P21980_C277 TGM2 ([3]; 100 μM in situ 231): 0.5
- isoTOP-ABPP reactivity O60610_C1227 DIAPH1 ([4]; 100 μM in situ 231): 1.6
- isoTOP-ABPP reactivity Q9NRG0_C55 CHRAC1 ([5]; 100 μM in situ 231): 20.0
- isoTOP-ABPP reactivity P83731_C6 RPL24 ([6]; 100 μM in situ 231): 0.7
- isoTOP-ABPP reactivity Q99497_C106 PARK7 ([7]; 100 μM in situ 231): 0.9
- isoTOP-ABPP reactivity A6NDU8_C179 C5orf51 ([8]; 100 μM in situ 231): 3.0
- isoTOP-ABPP reactivity O14879_C343 IFIT3 ([9]; 100 μM in situ 231): 6.6
Structure (SMILES): COc1ccc(C2CC(c3cccs3)=NN2C(=O)CCl)cc1 (centres unmarked) [compound 4]
